# Measured values published in patent US7763602B2, “Pyrrole derivatives as antimycobacterial compounds” (priority 2002, dated 2010).
# Tested on: M. tuberculosis clinical isolates, resistant
# Experiment: microbe, parasite or virus in culture
# Assay type: cell-based, Mycobacterium tuberculosis
# Conditions: Mycobacterium tuberculosis, read-out: MIC (μg/ml) M. tuberculosis Resistant (n = 26)
row,Structure (SMILES),MIC
1,"COc1ccccc1N1CCN(Cc2cc(-c3ccc(Cl)cc3)n(-c3ccc(Cl)cc3)c2C)CC1 [Compound No. 2, 1-{[1,5-bis(4-chlorophenyl)-2-methylpyrrol-3-yl]methyl}-4-(2-methoxyphenyl) piperazine]",0.25 to 1 µg/mL
2,"Cc1c(CN2CCN(c3ncccn3)CC2)cc(-c2ccc(Cl)cc2)n1-c1ccc(Cl)cc1 [compound 5, 1-{[1,5-bis(4-chlorophenyl)-2-methylpyrrol-3-yl]methyl}-4-(2-pyrimidyl) piperazine]",1 to 2 µg/mL

# Same assay, conditions: Mycobacterium tuberculosis, read-out: MIC (μg/ml) against Clinical isolates Resistant
row,Structure (SMILES),MIC
1,"Cc1c(CN2CCN(c3ccc(F)cc3)CC2)cc(-c2ccc(Cl)cc2)n1-c1ccc(Cl)cc1 [Compound No. 1, 1-{[1,5-bis(4-chlorophenyl)-2-methylpyrrol-3-yl]methyl}-4-(4-fluorophenyl) piperazine]",2 to 4 µg/mL
2,"COc1ccccc1N1CCN(Cc2cc(-c3ccc(Cl)cc3)n(-c3ccc(Cl)cc3)c2C)CC1 [Compound No. 2, 1-{[1,5-bis(4-chlorophenyl)-2-methylpyrrol-3-yl]methyl}-4-(2-methoxyphenyl) piperazine]",0.25 to 1 µg/mL
3,"CO[C@H]1/C=C/O[C@@]2(C)Oc3c(C)c(O)c4c(O)c(c(/C=N/N5CCN(C)CC5)c(O)c4c3C2=O)NC(=O)/C(C)=C\C=C\[C@H](C)[C@H](O)[C@@H](C)[C@@H](O)[C@@H](C)[C@H](OC(C)=O)[C@@H]1C [Rifampicin, reference compound]",4 to 16 µg/mL
4,"Cc1c(CN2CCN(c3ccccn3)CC2)cc(-c2ccc(Cl)cc2)n1-c1ccc(Cl)cc1 [compound 4, 1-{[1,5-bis(4-chlorophenyl)-2-methylpyrrol-3-yl]methyl}-4-(2-pyridyl) piperazine]",0.5 to 4 µg/mL
5,"Cc1c(CN2CCN(c3ncccn3)CC2)cc(-c2ccc(Cl)cc2)n1-c1ccc(Cl)cc1 [compound 5, 1-{[1,5-bis(4-chlorophenyl)-2-methylpyrrol-3-yl]methyl}-4-(2-pyrimidyl) piperazine]",0.5 to 2 µg/mL
6,"Cc1ccc(Cl)cc1N1CCN(Cc2cc(-c3ccc(Cl)cc3)n(-c3ccc(Cl)cc3)c2C)CC1 [compound 10, 1-{[1,5-bis(4-chlorophenyl)-2-methylpyrrol-3-yl]methyl}-4-(5-chloro-2-methylphenyl) piperazine]",1 to 4 µg/mL
7,"Cc1c(CN2CCN(c3ccc(F)cc3)CC2)cc(-c2ccc(Cl)cc2)n1-c1ccc(F)cc1F [compound 44, 1-{[1-(2,4-difluorophenyl)-5-(4-chlorophenyl)-2-methylpyrrol-3-yl]methyl}-4-(4-fluorophenyl)piperazine]",2 to 4 µg/mL

# Same assay, conditions: Table I; agar dilution
row,Structure (SMILES),MIC (μg/ml) against Clinical isolates Resistant
1,"Cc1c(CN2CCN(Cc3ccc4c(c3)OCO4)CC2)cc(-c2ccc(Cl)cc2)n1-c1ccc(Cl)cc1 [Compound No. 8, 5-[(4-{[1,5-bis(4-chlorophenyl)-2-methylpyrrol-3-yl]methyl}piperazinyl)methyl]-2H-benzo[d]1,3-dioxolane]",1.0 to 4.0 µg/mL
2,"Cc1c(CN2CCN(c3cccc(C(F)(F)F)c3)CC2)cc(-c2ccccc2)n1NC(=O)c1ccncc1 [Compound No. 12, N-(3-{[4-(3-trifluoromethylphenyl)piperazinyl]methyl}-2-methyl-5-phenylpyrrolyl)-4-pyridylcarboxamide]",0.5 to 1.0 µg/mL
3,"Cc1cc(CN2CCN(c3cccc(C(F)(F)F)c3)CC2)c(-c2ccccc2)n1NC(=O)c1ccncc1 [Compound No. 23, N-(3-{[4-(3-trifluoromethylphenyl)piperazinyl]methyl}-5-methyl-2-phenylpyrrolyl)-4-pyridylcarboxamide]",0.25 to 1.0 µg/mL
4,"Cc1c(CN2CCN(C(=O)c3ccco3)CC2)cc(-c2ccc(Cl)cc2)n1-c1ccc(Cl)cc1 [compound 7, 4-{[1,5-bis(4-chlorophenyl)-2-methylpyrrol-3-yl]methyl}piperazinyl-2-furyl-ketone]",2.0 to 4.0 µg/mL
5,"Cc1c(CN2CCN(c3ccc(F)cc3)CC2)cc(-c2ccccc2)n1NC(=O)c1ccncc1 [compound 11, N-(3-{[4-(4-fluorophenyl)piperazinyl]methyl}-2-methyl-5-phenylpyrrolyl)-4-pyridylcarboxamide]",0.5 to 2.0 µg/mL
6,"COc1ccccc1N1CCN(Cc2cc(-c3ccccc3)n(NC(=O)c3ccncc3)c2C)CC1 [compound 13, N-(3-{[4-(2-methoxyphenyl)piperazinyl]methyl}-2-methyl-5-phenylpyrrolyl)-4-pyridylcarboxamide]",1.0 to 2.0 µg/mL
7,"Cc1c(CN2CCN(c3ccccn3)CC2)cc(-c2ccccc2)n1NC(=O)c1ccncc1 [compound 14, N-(3-{[4-(2-pyridyl)piperazinyl]methyl}-2-methyl-5-phenylpyrrolyl)-4-pyridylcarboxamide]",4.0 to 8.0 µg/mL
8,"Cc1c(CN2CCN(Cc3ccccc3)CC2)cc(-c2ccccc2)n1NC(=O)c1ccncc1 [compound 15, N-(2-methyl-5-phenyl-3-{[4-benzylpiperazinyl]methyl}pyrrolyl)-4-pyridylcarboxamide]",4.0 to 8.0 µg/mL
9,"Cc1c(CN2CCN(C)CC2)cc(-c2ccccc2)n1NC(=O)c1ccncc1 [compound 16, N-{2-methyl-3-[(4-methylpiperazinyl)methyl]-5-phenylpyrrolyl}-4-pyridylcarboxamide]",4.0 to 16.0 µg/mL
10,"Cc1c(CN2CCN(Cc3ccc4c(c3)OCO4)CC2)cc(-c2ccccc2)n1NC(=O)c1ccncc1 [compound 17, N-(3-{[4-(2H-benzo[d]1,3-dioxolan-5-ylmethyl)piperazinyl]methyl}-2-methyl-5-phenylpyrrolyl)-4-pyridylcarboxamide]",4.0 to 8.0 µg/mL
11,"Cc1c(CN2CCCC2)cc(-c2ccccc2)n1NC(=O)c1ccncc1 [compound 19, N-[2-methyl-5-phenyl-3-(pyrrolidinylmethyl)pyrrolyl]-4-pyridylcarboxamide]",>16.0 µg/mL
12,"Cc1c(CN2CCSCC2)cc(-c2ccccc2)n1NC(=O)c1ccncc1 [compound 21, N-[2-methyl-5-phenyl-3-(1,4-thiazaperhydroin-4-ylmethyl)pyrrolyl]-4-pyridyl carboxamide]",1.0 to 4.0 µg/mL
13,"Cc1c(CN2CCN(c3ccc(F)cc3)CC2)cc(-c2ccccc2)n1NC(=O)c1cnccn1 [compound 25, N-(3-{[4-(4-fluorophenyl)piperazinyl]methyl}-2-methyl-5-phenylpyrrolyl)pyrazin-2-ylcarboxamide]",4.0 µg/mL
14,"COc1ccccc1N1CCN(Cc2cc(-c3ccccc3)n(NC(=O)c3cnccn3)c2C)CC1 [compound 26, N-(3-{[4-(2-methoxyphenyl)piperazinyl]methyl}-2-methyl-5-phenylpyrrolyl) pyrazin-2-ylcarboxamide]",4.0 to 16.0 µg/mL
15,"Cc1c(CN2CCN(c3cccc(C(F)(F)F)c3)CC2)cc(-c2ccccc2)n1NC(=O)c1cnccn1 [compound 27, N-(3-{[4-(3-trifluoromethylphenyl)piperazinyl]methyl}-2-methyl-5-phenylpyrrolyl)pyrazin-2-ylcarboxamide]",8.0 µg/mL
16,"Cc1c(CN2CCN(c3ccccn3)CC2)cc(-c2ccccc2)n1NC(=O)c1cnccn1 [compound 28, N-(3-{[4-(2-pyridyl)piperazinyl]methyl}-2-methyl-5-phenylpyrrolyl)pyrazin-2-ylcarboxamide]",4.0 to 16.0 µg/mL
17,"Cc1c(CN2CCN(Cc3ccc4c(c3)OCO4)CC2)cc(-c2ccccc2)n1NC(=O)c1cnccn1 [compound 29, N-(3-{[4-(2H-benzo[d]1,3-dioxolen-5-ylmethyl)piperazinyl]methyl}-2-methyl-5-phenylpyrrolyl)pyrazin-2-ylcarboxamide]",>16.0 µg/mL
18,"Cc1c(CN2CCN(C(c3ccccc3)c3ccccc3)CC2)cc(-c2ccccc2)n1NC(=O)c1cnccn1 [compound 30, N-(3-{[4-(diphenylmethyl)piperazinyl]methyl}-2-methyl-5-phenylpyrrolyl)-pyrazin-2-ylcarboxamide]",4.0 to 16.0 µg/mL
19,"COc1ccccc1N1CCN(Cc2cc(C)n(NC(=O)c3cnccn3)c2-c2ccccc2)CC1 [compound 32, N-(3-{[4-(2-methoxyphenyl)piperazinyl]methyl}-5-methyl-2-phenylpyrrolyl) pyrazin-2-ylcarboxamide]",>16.0 µg/mL
20,"Cc1cc(CN2CCN(c3cccc(C(F)(F)F)c3)CC2)c(-c2ccccc2)n1NC(=O)c1cnccn1 [compound 33, N-(3-{[4-(3-trifluoromethylphenyl)piperazinyl]methyl}-5-methyl-2-phenylpyrrolyl)pyrazin-2-ylcarboxamide]",4.0 to 8.0 µg/mL
21,"Cc1cc(CN2CCN(c3ccccn3)CC2)c(-c2ccccc2)n1NC(=O)c1cnccn1 [compound 34, N-(3-{[4-(2-pyridyl)piperazinyl]methyl}-5-methyl-2-phenylpyrrolyl)pyrazin-2-ylcarboxamide]",>16.0 µg/mL
22,"Cc1cc(CN2CCN(Cc3ccc4c(c3)OCO4)CC2)c(-c2ccccc2)n1NC(=O)c1cnccn1 [compound 35, N-(3-{[4-(2H-benzo[3,4-d]1,3-dioxolan-5-ylmethyl)piperazinyl]methyl}-5-methyl-2-phenylpyrrolyl)pyrazin-2-ylcarboxamide]",>16.0 µg/mL
23,"Cc1cc(CN2CCN(C(c3ccccc3)c3ccccc3)CC2)c(-c2ccccc2)n1NC(=O)c1cnccn1 [compound 36, N-(3-{[4-(diphenylmethyl)piperazinyl]methyl}-5-methyl-2-phenylpyrrolyl) pyrazin-2-ylcarboxamide]",1.0 to 4.0 µg/mL
24,"COc1ccccc1N1CCN(Cc2cc(-c3ccc(Cl)cc3)n(NC(=O)c3cnccn3)c2C)CC1 [compound 38, N-(5-(4-chlorophenyl)-3-{[4-(2-methoxyphenyl)piperazinyl]methyl}-2-methylpyrrolyl)pyrazin-2-ylcarboxamide]",>16.0 µg/mL
25,"Cc1cc(CN2CCN(c3ccc(F)cc3)CC2)c(-c2ccc(Cl)cc2)n1NC(=O)c1cnccn1 [compound 41, N-(2-(4-chlorophenyl)-3-{[4-(4-fluorophenyl)piperazinyl]methyl}-5-methylpyrrolyl)pyrazin-2-ylcarboxamide]",>16.0 µg/mL
26,"Cc1cc(CN2CCN(c3cccc(C(F)(F)F)c3)CC2)c(-c2ccc(Cl)cc2)n1NC(=O)c1cnccn1 [compound 43, N-(2-(4-chlorophenyl)-3-{[4-(3-trifluoromethylphenyl)piperazinyl]methyl}-5-methylpyrrolyl)pyrazin-2-ylcarboxamide]",>16.0 µg/mL
